Data as given in ChEMBL document CHEMBL2203096, “Recent advances in hypoxia-inducible factor (HIF)-1 inhibitors” (Eur J Med Chem, 2012).

Columns and labels:
[1] = Metabolic stability in rat Hepatocyte assessed as compound remaining at 1 umol/L after 2 hrs by RP-HPLC analysis; format: ADME, cell-based; details: hepatocytes, read-out: Stability
[2] = Metabolic stability in human Hepatocyte assessed as compound remaining at 1 umol/L after 2 hrs by RP-HPLC analysis; format: ADME, cell-based; details: hepatocytes, read-out: Stability
[3] = Antitumor activity against human Hep3B cells xenografted in nude mouse assessed as reduction in tumor size at 10 to 30 mg/kg/day, ip for 2 weeks (reference value: 900 mm3); format: functional, Hep 3B2; details: route intraperitoneal
[4] = target: T1, Hypoxia-inducible factor 1-alpha (Homo sapiens, UniProt Q16665); assay: Inhibition of HIF-1alpha in human LN229 cells under hypoxia condition by HRE-luciferase reporter gene assay; format: cell-based
T1 sequence (Q16665 whole entry): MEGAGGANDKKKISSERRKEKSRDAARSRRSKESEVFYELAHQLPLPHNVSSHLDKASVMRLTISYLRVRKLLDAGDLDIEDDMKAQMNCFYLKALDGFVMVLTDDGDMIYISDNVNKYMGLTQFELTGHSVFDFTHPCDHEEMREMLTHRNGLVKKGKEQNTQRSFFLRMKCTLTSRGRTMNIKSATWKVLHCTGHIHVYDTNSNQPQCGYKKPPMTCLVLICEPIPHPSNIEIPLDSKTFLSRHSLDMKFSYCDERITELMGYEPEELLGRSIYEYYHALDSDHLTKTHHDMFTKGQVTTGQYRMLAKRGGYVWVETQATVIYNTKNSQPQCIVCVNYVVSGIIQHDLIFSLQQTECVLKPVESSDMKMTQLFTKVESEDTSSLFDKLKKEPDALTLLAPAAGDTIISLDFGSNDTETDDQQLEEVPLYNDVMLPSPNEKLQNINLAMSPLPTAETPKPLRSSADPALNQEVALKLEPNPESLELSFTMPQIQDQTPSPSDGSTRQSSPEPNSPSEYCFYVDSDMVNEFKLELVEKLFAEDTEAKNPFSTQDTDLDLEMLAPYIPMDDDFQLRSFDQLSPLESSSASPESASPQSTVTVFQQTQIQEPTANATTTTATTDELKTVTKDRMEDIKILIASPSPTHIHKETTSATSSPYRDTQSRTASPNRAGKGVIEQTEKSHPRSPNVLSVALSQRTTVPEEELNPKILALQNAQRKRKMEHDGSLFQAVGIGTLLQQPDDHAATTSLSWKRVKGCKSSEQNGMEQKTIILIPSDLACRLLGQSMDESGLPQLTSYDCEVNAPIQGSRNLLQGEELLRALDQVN

[5] = target: T1, Hypoxia-inducible factor 1-alpha; assay: Inhibition of HIF-1alpha in human HCT116 cells under hypoxia condition by HRE-luciferase reporter gene assay; format: cell-based, HCT-116
MDA-MB-435 = assay: Antitumor activity against human MDA-MB-435 cells xenografted in nude mouse assessed as inhibition of tumor growth at 20 to 50 mg/kg, qd for 5 weeks; format: functional; details: dose mg/kg 20-50
[6] = Apparent permeability across human Caco2 cells at 5 uM; format: ADME, cell-based; details: Caco-2
HCT-116 = assay: Antitumor activity against human HCT116 cells xenografted in mouse assessed as inhibition of tumor growth at 30 mg/kg, iv; format: functional; details: read-out: TGI
Mus musculus = assay: Toxicity in human HCT116 cells xenografted mouse assessed as decrease in body weight at 30 mg/kg, iv; format: organism-based, HCT-116; set-up: dose 30 mg/kg, route intravenous; scale not given: the % may be the effect or the level left; details: in vivo
[7] = Antitumor activity against human […] cells xenografted in athymic nude mice assessed as reduction of tumor size at 20 mg/kg, qd; format: functional; set-up: scale not given: the % may be the effect or the level left
[8] = target: T1, Hypoxia-inducible factor 1-alpha; assay: Inhibition of HIF-1alpha transcriptional co-activator p300 interaction
[9] = target: T1, Hypoxia-inducible factor 1-alpha; assay: Inhibition of HIF-1alpha-mediated VEGF expression in human Hep3b cells by luciferase reporter gene assay; format: cell-based
[10] = target: T1, Hypoxia-inducible factor 1-alpha; assay: Inhibition of HIF-1alpha-mediated VEGF secretion in human Hep3b cells by ELISA; format: cell-based
Nucleic Acid = assay: Binding affinity to HIF-1 5'-CGTG-3' DNA sequence in human U251 cells assessed as inhibition of HRE-mediated reporter activation; format: cell-based; details: u-251
[11] = Apparent permeability across human Caco2 cells at 10 uM; format: ADME, cell-based; details: Caco-2
[12] = Apparent permeability across human Caco2 cells at 20 uM; format: ADME, cell-based; details: Caco-2

SMILES: COc1cc2c(cc1C(N)=O)CC[C@@H]1[C@@H]2CC[C@]2(C)CCC[C@@H]12
- remaining at 2 h, 1 µM [1]: > 65%
- remaining at 2 h, 1 µM [2]: > 65%

SMILES: Cn1c(CO)ccc1-c1nn(Cc2ccccc2)c2ccccc12
- Activity [3]: 400 mm3

SMILES: COc1c(C(C2CCCCC2)n2cnc3c(Cl)cccc32)ccc2c1C=CC(C)(C)O2 (centres undefined)
- IC50 [4]: 7500 nM

SMILES: Cc1ccc(Cn2nc(-c3nc4ccc(-c5ccc(Cl)cc5)cc4[nH]3)cc2C)cc1
- IC50 [5]: 3 nM

SMILES: COC(=O)c1ccc2[nH]c(COc3ccc(C45CC6CC(CC(C6)C4)C5)cc3)nc2c1
- TGI (MDA-MB-435): 58.6%

SMILES: OCc1ccc(-c2nn(Cc3ccccc3)c3ccccc23)o1
- Activity [3]: 400 mm3

SMILES: O=C(COc1ccc(C23CC4CC(CC(C4)C2)C3)cc1)Nc1cc(C(=O)NCCCn2ccnc2)ccn1
- Papp at 5 µM [6]: 22.9 ×10⁻⁶ cm/s
- inhibition in vivo at 30 mg/kg (HCT-116): 51.3%
- Activity (Mus musculus): 92.7%

SMILES: COC(=O)c1ccc(O)c(NC(=O)COc2ccc(C34CC5CC(CC(C5)C3)C4)cc2)c1
- Activity [7]: 53.6%

SMILES: COc1cc2c(cc1O)CC[C@@H]1[C@@H]2CC[C@]2(C)[C@@H](O)CC[C@@H]12 [2-METHOXYESTRADIOL]
- remaining at 2 h, 1 µM [1]: > 65%
- remaining at 2 h, 1 µM [2]: > 65%

SMILES: CN1C(=O)[C@@]23C[C@]4([C@]56C[C@@]78SS[C@@](CO)(C(=O)N7[C@H]5Nc5ccccc56)N(C)C8=O)c5ccccc5N[C@@H]4N2C(=O)[C@]1(CO)SS3 [CHAETOCIN]
- IC50 [8]: 12500 nM
- IC50 [9]: 40 nM
- IC50 [10]: 100 nM

SMILES: CS[C@H]1SC[C@H]2C(=O)N(C)[C@@H](C(C)C)C(=O)OC[C@@H](NC(=O)c3cnc4ccccc4n3)C(=O)N[C@@H](C)C(=O)N(C)[C@@H]1C(=O)N(C)[C@@H](C(C)C)C(=O)OC[C@@H](NC(=O)c1cnc3ccccc3n1)C(=O)N[C@@H](C)C(=O)N2C [ECHINOMYCIN]
- EC50 (Nucleic Acid): 1.2 nM

SMILES: COCCc1ccc(OCC(O)CNC(C)C)cc1 (centres undefined) [METOPROLOL]
- Papp at 10 µM [11]: 27.2 ×10⁻⁶ cm/s

SMILES: CNC(=C[N+](=O)[O-])NCCSCc1ccc(CN(C)C)o1 [RANITIDINE]
- Papp at 20 µM [12]: 0.6 ×10⁻⁶ cm/s
